Experimental data as given in US7803757B2, “Peptides based on the sequence of human lactoferrin and their use” (PharmaSurgics in Sweden AB, priority 1998, dated 2010).
Values after ≈ are worked out from the molar mass of the structure shown. Read-outs that look alike come from different tables or passages of the source. Bridge positions count the residues as written; N and C are the ends. Ends that are not written are not given here. Peptide text beside a SMILES is read from it. * marks the point of attachment. Acm = CC(=O)NC*

Assays:
Type in all cases: cell-based
[1] = system: C. albicans (ATCC64549)
Experimental: (§1) In the examples, the minimal microbicidal concentrations (MMC) and minimal inhibitory concentrations (MIC) were determined as follows, unless otherwise specified in the examples. Bacterial or fungal strains were cultured in BHI medium over night at 37° C. A volume of the culture was transferred to a new tube with BHI and incubated for two more hours. Thereafter the cells were spun down and the pellet was suspended in BHI medium diluted 1/100 (1% BHI). The concentration of bacterial or fungal cells was spectrophotometrically determined at 650 nm. The microbial concentrations were also determined by viable counts. Peptides serially diluted in 1% BHI by twofold or tenfold steps were added in triplicate to the wells of a microtiterplate (200 μl per well). The bacterial or fungal cell solutions were added in 10 μl volumes to give a final concentration of approximately 1-5×10^5 cells per ml in the well. The microplate was incubated at 37° C. in a humid chamber for two hours. Thereafter 5 μl was taken from each well and added as a drop onto a blood agar plate and incubated over night at 37° C. The microplate was incubated for another 20 hours at 37° C. and thereafter analysed spectrophotometrically at 650 nm in a microplate reader (Emax, Molecular Devices, USA). The concentration of peptide causing a 99% reduction of the inoculum after 2 hours of incubation was defined as the MMC99%. The MIC value was defined as the concentration giving no increase in the absorbance value above the background level after 20 hours of incubation.
(§2) C. albicans (ATCC64549) and E. coli O6, respectively, were incubated with the different peptides. The experiments were performed with 1, 10, 25 and 100 μg/ml of peptide.

[2] = system: E. coli O6
Experimental: as §1, §2

[3] = system: C. albicans yeast cells (ATCC64549); assay: killing and growth inhibition of C. albicans at pH 4.5 (Example 11); design: key to C. albicans inhibition (OD650): + = no increase in OD650 is seen; − = OD650 continues to increase; conditions: pH 4.5, 1% BHI, 25 μg/ml of the peptide; for C. albicans inhibition (OD650): OD650 after an additional 18 hours; for C. albicans killing: 99% / C. albicans killing: 100%: 2 hours
Experimental: C. albicans yeast cells (ATCC64549) were incubated for 2 hours at pH 4.5 in BHI medium diluted to 1% of the original concentration containing 25 µg/ml of the peptide. Thereafter the fungal solutions were cultured on blood agar plates. OD650 was measured after incubation during an additional 18 hours. The fungicidal effect of the peptides on C. albicans was determined as the ability of the peptide to kill 100% and 99%, respectively, of the fungus, while the growth inhibitory effect was determined by measuring the OD650. An inhibitory effect existed when no increase in OD650 was recorded.

[4] = system: E. faecalis; assay: killing of bacteria at fixed peptide concentration, E. faecalis (Example 12); conditions: peptide 25 μg/ml
Experimental: (§3) In this example, the peptides according to the invention were used to study the effect on the killing of different bacteria.
(§4) The peptides were used at a concentration of 25 μg/ml.

[5] = system: S. epidermis; assay: killing of bacteria at fixed peptide concentration, S. epidermis (Example 12); conditions: peptide 25 μg/ml
Experimental: as §3, §4

[6] = system: S. aureus; assay: killing of bacteria at fixed peptide concentration, S. aureus (Example 12); conditions: peptide 25 μg/ml
Experimental: as §3, §4

[7] = system: K. pneumoniae; assay: killing of bacteria at fixed peptide concentration, K. pneumoniae (Example 12); conditions: peptide 25 μg/ml
Experimental: as §3, §4

[8] = system: P. aeruginosa; assay: killing of bacteria at fixed peptide concentration, P. aeruginosa (Example 12); conditions: peptide 25 μg/ml
Experimental: as §3, §4

[9] = system: Candida albicans ATCC 64549; assay: fungicidal and growth inhibitory activity, Candida albicans ATCC 64549 (Example 8); conditions: for Concentration of agent for 100% killing: C. albicans ATCC 64549 1·10^5/ml, 2 hours 37° C., diluted BHI; for Concentration of agent for inhibition of growth: C. albicans ATCC 64549, spectrophotometrically after 20 hours
Experimental: Candida albicans ATCC 64549 (1·10^5/ml) was incubated in the presence of the peptides during 2 hours at 37° C. in diluted growth medium (BHI, twofold serial dilutions starting with 50 μg/ml). The fungicidal activity was measured by culturing 5 μl from each incubation well on Saboroud agar plates.
The inhibition of growth was measured spectrophotometrically after 20 hours of incubation.

[10] = system: E. coli O14; assay: bactericidal and growth inhibitory activity, E. coli O14 (Example 9); conditions: for Concentration of agent for 100% killing: E. coli O14, 2 hours; for Concentration of agent for inhibition of growth: E. coli O14, spectrophotometrically after 20 hours
Experimental: E. coli O14 was incubated as described above in the presence of the peptides during 2 hours. The bactericidal activity was measured in the same way as described above.
The inhibition of growth was measured spectrophotometrically after incubation during 20 hours.

[11] = C. albicans, tested at 1, 10, 25 and 100 μg/ml of peptide
[12] = E. coli O6, tested at 1, 10, 25 and 100 μg/ml of peptide

Compound	MIC ([1]; ATCC64549) [µg/mL]	MMC99% [1, 11] [µg/mL]	MMC99% [2, 12] [µg/mL]	MIC ([2]; O6) [µg/mL]	C. albicans inhibition (OD650) [3]	C. albicans killing: 99% [3]	C. albicans killing: 100% [3]	killing of bacteria: E. faecalis [4]	killing of bacteria: S. epidermis [5]	killing of bacteria: S. aureus [6]	killing of bacteria: K. pneumoniae [7]	killing of bacteria: P. aeruginosa [8]	Concentration of agent for 100% killing [9] [µg/mL]	Concentration of agent for inhibition of growth [9] [µg/mL]	Concentration of agent for 100% killing [10] [µg/mL]	Concentration of agent for inhibition of growth [10] [µg/mL]	MIC [1, 11] [µg/mL]	MIC [2, 12] [µg/mL]
CSCC[C@@H]1NC(=O)[C@@H](NC(=O)[C@H](CCCNC(=N)N)NC(=O)[C@@H]2CC(=O)NCCCC[C@H](NC(=O)[C@H](CCCCN)NC(=O)[C@@H](NC(C)=O)[C@@H](C)O)C(=O)N[C@@H](Cc3ccccc3)C(=O)N[C@@H](CCC(N)=O)C(=O)N[C@@H](Cc3c[nH]c4ccccc34)C(=O)N2)CCCCNC(=O)C[C@@H](C(=O)N[C@@H](CCCNC(=N)N)C(N)=O)NC(=O)[C@H](CCCCN)NC(=O)[C@H](CCCNC(=N)N)NC1=O [Peptide 61] (Ac-TKKFQWDRKMRKDR-NH2; lactam 3-7, 9-13; N-terminus and C-terminus assumed)	10 (≈ 5.19 µM)	10	10	10 (≈ 5.19 µM)	+	+ (+ = 100/99% of the bacteria are killed)	− (− = less than 100/99% of the bacteria are killed)	+ (+ = 99% of the bacteria are killed)	+ (+ = 99% of the bacteria are killed)	+ (+ = 99% of the bacteria are killed)	+ (+ = 99% of the bacteria are killed)	+ (+ = 99% of the bacteria are killed)						
QWQRNMRKVR [Peptide 40]	25	25	>25	>25	−	− (− = less than 100/99% of the bacteria are killed)	− (− = less than 100/99% of the bacteria are killed)	− (− = less than 99% of the bacteria are killed)	+ (+ = 99% of the bacteria are killed)	− (− = less than 99% of the bacteria are killed)	− (− = less than 99% of the bacteria are killed)	− (− = less than 99% of the bacteria are killed)						
EATKCFQWQRNMRKVR [Peptide 64]	10	25	10	10	+	+ (+ = 100/99% of the bacteria are killed)	− (− = less than 100/99% of the bacteria are killed)	+ (+ = 99% of the bacteria are killed)	+ (+ = 99% of the bacteria are killed)	+ (+ = 99% of the bacteria are killed)	− (− = less than 99% of the bacteria are killed)	− (− = less than 99% of the bacteria are killed)						
Peptide 2: SEQ. ID. NO. 1 with X1 E, X2 A, X5 C, X7 Q, X11 N, X17-25 G-P-P-V-S-C-I-K-R; cysteines acetamidomethyl protected (Ac-EATKC(Acm)FQWQRNMRKVRGPPVSC(Acm)IKR-NH2)													6.2	6.2	25	6.2		
Peptide 57: 14 amino acids, modified positions 18-31 of human lactoferrin; sequence only in sequence listing (TKKFQWQRNMRKVR)		25	10		+	+ (+ = 100/99% of the bacteria are killed)	+ (+ = 100/99% of the bacteria are killed)	+ (+ = 99% of the bacteria are killed)	+ (+ = 99% of the bacteria are killed)	+ (+ = 99% of the bacteria are killed)	+ (+ = 99% of the bacteria are killed)	+ (+ = 99% of the bacteria are killed)					10	10
QPEATKCFQWQRNMRKVR [Peptide 33]	10	100	25	10	−	− (− = less than 100/99% of the bacteria are killed)	− (− = less than 100/99% of the bacteria are killed)	+ (+ = 99% of the bacteria are killed)	+ (+ = 99% of the bacteria are killed)	+ (+ = 99% of the bacteria are killed)	− (− = less than 99% of the bacteria are killed)	− (− = less than 99% of the bacteria are killed)						
KCFQWQRNMRKVRGPPVSCI [Morinaga 24] (KCFQWQRNMRKVRGPPVSCI; also: cyclic peptide, ring type not given here) [reference compound]													12.5	12.5	25	6.2		
KCFQWQRNMRKVRGPPVSCI [Morinaga 25] (KCFQWQRNMRKVRGPPVSCI) [reference compound]													6.2	6.2	12.5	3.1		
TKCFQWQRNMRKVR [Peptide 50]	10	10	10	10	+	+ (+ = 100/99% of the bacteria are killed)	+ (+ = 100/99% of the bacteria are killed)	+ (+ = 99% of the bacteria are killed)	+ (+ = 99% of the bacteria are killed)	+ (+ = 99% of the bacteria are killed)	+ (+ = 99% of the bacteria are killed)	+ (+ = 99% of the bacteria are killed)						
FQWQRNMRKVR [Peptide 44]	10	10	10	10	−	− (− = less than 100/99% of the bacteria are killed)	− (− = less than 100/99% of the bacteria are killed)	+ (+ = 99% of the bacteria are killed)	+ (+ = 99% of the bacteria are killed)	+ (+ = 99% of the bacteria are killed)	− (− = less than 99% of the bacteria are killed)	− (− = less than 99% of the bacteria are killed)						
